Values quoted from earlier work in patent US20190160050A1, “SMALL MOLECULE INHIBITION FOR PREVENTING OR TREATING FIBROTIC DISEASES” (THE REGENTS OF THE UNIVERSITY OF CALIFORNIA, priority 2016, published 2019).
One block for each compound: values may come before it.

Key:
JNK = conditions: read-out: IC50 as competitive inhibitor of JNK
Akt/PKB = conditions: read-out: IC50 (Akt/PKB inhibitor)
Src = Src (Homo sapiens, UniProt P12931)
Lck = Lck (Homo sapiens, UniProt P06239)
[1] = target: vascular endothelial growth factor receptor 2 (Homo sapiens, UniProt P35968)
Chain of vascular endothelial growth factor receptor 2 (P35968 20-1356, species assumed): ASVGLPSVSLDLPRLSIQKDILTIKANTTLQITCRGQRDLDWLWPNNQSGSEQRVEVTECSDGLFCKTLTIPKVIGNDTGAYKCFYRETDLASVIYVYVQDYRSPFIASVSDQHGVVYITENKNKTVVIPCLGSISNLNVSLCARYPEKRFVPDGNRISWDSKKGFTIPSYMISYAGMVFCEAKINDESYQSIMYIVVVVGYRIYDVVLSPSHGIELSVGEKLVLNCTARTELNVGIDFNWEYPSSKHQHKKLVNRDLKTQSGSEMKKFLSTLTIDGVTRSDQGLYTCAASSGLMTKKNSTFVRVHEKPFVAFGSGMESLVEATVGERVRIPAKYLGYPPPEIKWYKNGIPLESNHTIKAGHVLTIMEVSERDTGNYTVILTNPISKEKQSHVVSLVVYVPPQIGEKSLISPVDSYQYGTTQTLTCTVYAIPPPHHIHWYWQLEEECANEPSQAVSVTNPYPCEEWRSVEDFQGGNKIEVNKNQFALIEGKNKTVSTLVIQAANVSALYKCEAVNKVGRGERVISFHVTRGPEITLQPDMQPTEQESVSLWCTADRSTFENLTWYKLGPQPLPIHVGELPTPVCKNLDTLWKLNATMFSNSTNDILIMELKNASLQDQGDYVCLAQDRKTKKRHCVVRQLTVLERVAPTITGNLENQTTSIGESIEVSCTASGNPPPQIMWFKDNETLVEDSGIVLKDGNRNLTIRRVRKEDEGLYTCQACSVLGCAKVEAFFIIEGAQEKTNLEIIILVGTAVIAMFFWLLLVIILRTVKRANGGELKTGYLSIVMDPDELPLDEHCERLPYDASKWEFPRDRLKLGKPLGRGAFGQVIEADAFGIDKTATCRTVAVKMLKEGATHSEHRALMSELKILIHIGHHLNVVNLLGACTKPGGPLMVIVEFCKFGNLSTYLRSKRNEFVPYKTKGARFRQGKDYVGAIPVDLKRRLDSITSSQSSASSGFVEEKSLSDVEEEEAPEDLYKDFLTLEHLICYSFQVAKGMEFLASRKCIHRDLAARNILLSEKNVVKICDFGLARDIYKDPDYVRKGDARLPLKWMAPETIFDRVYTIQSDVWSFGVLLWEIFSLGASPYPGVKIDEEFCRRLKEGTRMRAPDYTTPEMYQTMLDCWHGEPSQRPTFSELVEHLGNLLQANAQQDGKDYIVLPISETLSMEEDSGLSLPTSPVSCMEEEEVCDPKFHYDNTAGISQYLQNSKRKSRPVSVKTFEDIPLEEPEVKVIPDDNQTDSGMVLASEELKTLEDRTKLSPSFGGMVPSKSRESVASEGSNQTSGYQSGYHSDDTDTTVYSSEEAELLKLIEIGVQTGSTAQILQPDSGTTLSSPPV

c-fms = c-fms (Homo sapiens, UniProt P07333); conditions: read-out: IC50 for c-fms tyrosine kinase
Chain of c-fms (P07333 20-972): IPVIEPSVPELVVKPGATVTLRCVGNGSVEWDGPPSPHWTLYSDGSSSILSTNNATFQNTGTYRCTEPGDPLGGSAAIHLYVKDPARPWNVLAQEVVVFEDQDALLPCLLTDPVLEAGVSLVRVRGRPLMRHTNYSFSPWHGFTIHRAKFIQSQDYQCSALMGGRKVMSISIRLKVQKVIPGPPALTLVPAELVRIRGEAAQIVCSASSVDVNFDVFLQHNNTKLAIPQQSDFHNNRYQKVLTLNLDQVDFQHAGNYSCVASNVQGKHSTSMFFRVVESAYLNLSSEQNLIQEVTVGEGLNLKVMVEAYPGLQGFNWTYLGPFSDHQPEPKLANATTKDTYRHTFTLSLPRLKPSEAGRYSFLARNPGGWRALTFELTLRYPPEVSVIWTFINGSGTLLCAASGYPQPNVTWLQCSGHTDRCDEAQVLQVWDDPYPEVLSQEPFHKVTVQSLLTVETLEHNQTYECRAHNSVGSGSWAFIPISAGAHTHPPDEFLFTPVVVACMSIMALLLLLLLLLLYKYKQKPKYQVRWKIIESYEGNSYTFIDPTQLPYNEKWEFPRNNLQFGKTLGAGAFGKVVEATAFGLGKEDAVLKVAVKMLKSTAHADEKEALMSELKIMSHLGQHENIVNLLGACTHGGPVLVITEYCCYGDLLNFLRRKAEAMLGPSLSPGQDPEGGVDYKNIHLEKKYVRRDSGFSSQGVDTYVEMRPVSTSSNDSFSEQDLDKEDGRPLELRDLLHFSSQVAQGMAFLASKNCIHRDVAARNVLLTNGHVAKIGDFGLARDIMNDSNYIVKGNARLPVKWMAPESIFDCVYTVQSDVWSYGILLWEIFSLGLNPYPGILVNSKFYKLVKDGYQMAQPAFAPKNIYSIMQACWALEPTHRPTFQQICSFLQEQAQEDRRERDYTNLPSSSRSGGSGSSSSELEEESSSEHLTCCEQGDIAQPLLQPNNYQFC

Chain of Lck (P06239 whole entry, species assumed): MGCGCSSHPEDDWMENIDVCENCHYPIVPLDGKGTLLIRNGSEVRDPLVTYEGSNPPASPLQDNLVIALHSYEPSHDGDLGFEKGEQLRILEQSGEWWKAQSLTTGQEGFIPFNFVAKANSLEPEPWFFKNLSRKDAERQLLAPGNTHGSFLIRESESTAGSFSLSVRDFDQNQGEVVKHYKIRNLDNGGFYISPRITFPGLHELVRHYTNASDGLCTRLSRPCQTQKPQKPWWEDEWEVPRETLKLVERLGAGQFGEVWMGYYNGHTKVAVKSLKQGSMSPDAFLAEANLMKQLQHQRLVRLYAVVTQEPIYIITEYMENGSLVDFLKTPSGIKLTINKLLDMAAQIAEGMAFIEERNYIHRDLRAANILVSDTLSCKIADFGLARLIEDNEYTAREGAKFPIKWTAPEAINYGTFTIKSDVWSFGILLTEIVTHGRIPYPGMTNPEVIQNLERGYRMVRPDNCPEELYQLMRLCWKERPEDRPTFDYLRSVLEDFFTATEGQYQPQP
Chain of Src (P12931 whole entry, species assumed): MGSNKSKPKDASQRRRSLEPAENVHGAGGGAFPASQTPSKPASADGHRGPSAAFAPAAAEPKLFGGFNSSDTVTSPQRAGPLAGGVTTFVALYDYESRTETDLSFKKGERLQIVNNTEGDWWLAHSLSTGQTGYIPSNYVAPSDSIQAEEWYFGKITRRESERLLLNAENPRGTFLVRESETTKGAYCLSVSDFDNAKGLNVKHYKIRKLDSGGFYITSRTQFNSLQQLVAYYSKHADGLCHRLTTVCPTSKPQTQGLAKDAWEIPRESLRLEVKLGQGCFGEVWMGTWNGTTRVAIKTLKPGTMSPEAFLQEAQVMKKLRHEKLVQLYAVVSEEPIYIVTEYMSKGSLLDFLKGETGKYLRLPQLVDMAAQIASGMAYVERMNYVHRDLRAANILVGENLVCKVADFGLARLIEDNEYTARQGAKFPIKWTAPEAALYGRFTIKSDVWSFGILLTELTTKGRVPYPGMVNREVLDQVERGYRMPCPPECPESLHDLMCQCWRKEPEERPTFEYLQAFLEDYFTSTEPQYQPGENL

- IC50 (JNK): 280 nM
SMILES: O=c1[nH]nc(Sc2ncc([N+](=O)[O-])s2)n1-c1ccc2c(c1)OCCO2 [BI 78D3, 4-(2,3-dihydro-1,4-benzodioxin-6-yl)-2,4-dihydro-5-[(5-nitro-2-thiazolyl)thio]-3H-1,2,4-triazol-3-one]

SMILES: NC(=S)N/N=C/c1coc2ccccc2c1=O.[Cl][Cu][Cl] [FPA 124]
- IC50 (Akt/PKB): 100 nM

- IC50 (Src): 44 nM
- IC50 (Lck): 88 nM
- IC50 [1]: 320 nM
- IC50 (c-fms): 30000 nM
SMILES: COc1cc2ncnc(Nc3ccc(Oc4ccccc4)cc3)c2cc1OC [Src Inhibitor-1, 4-(4′-Phenoxyanilino)-6,7-dimethoxyquinazoline, 6,7-Dimethoxy-N-(4-phenoxyphenyl)-4-quinazolinamine]
